From US8071540B2, “Virus derived antimicrobial peptides” (priority 2007, dated 2011)
“Also recorded” adds a separate entry of the source. Where no end group is shown, it is not given here.

How the values were obtained:
Pseudomonas aeruginosa [1] = test: Bacterial lysis (broth dilution) assay, MBC; format: cell-based; design: MBC, Psuedomonas aeruginosa, 0 mM NaCl / MBC, Psuedomonas aeruginosa, 150 mM NaCl: unit not given here; settings: for MBC, Psuedomonas aeruginosa, 0 mM NaCl: 0 mM NaCl (10 mM phosphate buffer); for MBC, Psuedomonas aeruginosa, 0 mM NaCl / MBC, Psuedomonas aeruginosa, 150 mM NaCl: 99.9% killing; for MBC, Psuedomonas aeruginosa, 150 mM NaCl: 150 mM NaCl (physiologic); for P. aeruginosa killing, influence of physiologic NaCl: phosphate buffer with 150 mM NaCl versus low salt
Staphylococcus aureus [2] = test: Bacterial lysis (broth dilution) assay, MBC; format: cell-based; settings: for MBC, Staphylococcus aureus, 0 mM NaCl: 0 mM NaCl (10 mM phosphate buffer); for MBC, Staphylococcus aureus, 0 mM NaCl / MBC, Staphylococcus aureus, 150 mM NaCl: 99.9% killing; for MBC, Staphylococcus aureus, 150 mM NaCl: 150 mM NaCl (physiologic)
Source text: The assays for growth inhibition of a microbial target can be used to derive a minimum bactericidal concentration (MBC) value for the peptide, i.e., the concentration of peptide required to kill 99.9% (3-log decrease) of the microbial sample being tested. This value is well known to those in the art as representative of the effectiveness of a particular antimicrobial agent (e.g., an antibiotic) against a particular organism or group of organisms. In assays to detect the MBC of a peptide, growth inhibition of a bacterial population also can be measured with reference to the number of colony forming units (cfu) after exposure to a peptide relative to a control experiment without a peptide.
Bacterial lysis assay. Bacterial lysis assays were conducted in a manner similar to that described previously (Lehrer, R. I., M. E. Selsted, D. Szklarek, and F. J. 1983. Infect. Immun. 42: 10-4, 1983; Miller, M. A., R. F. Garry, J. M. Jaynes, and R. C. Montelaro, AIDS Res Hum Retroviruses 7:511-519, 1991). Bacterial suspensions were cultured in Luria-Bertani Broth to mid-log growth phase and washed by two cycles of centrifugation and suspension in 10 mM phosphate buffer. The Abs600 of the suspension was adjusted with 10 mM phosphate buffer such that, upon dilution, 5-10×10^5 cfu/mL would be treated in the assay. Bacteria were incubated for 1 h with two-fold dilutions of peptides (100 μM to 100 nM) in 96-well plates using 10 mM phosphate buffer, pH 7.2, as a diluent. Ten-fold dilutions of bacteria were performed to 1:1 000; a 100 μl aliquot from each condition was spread on the surface of tryptic soy agar plates (Difco, Detroit, Mich.) which were incubated overnight. Colonies of surviving bacteria (cfu, colony-forming units) were counted and compared to untreated controls to determine the amount of peptide-induced killing under each condition. Log killing is defined as the log of the ratio of cfu present before and after treatment with peptide. The minimal bactericidal concentration, MBC, is the peptide concentration at which 99.9% (three log) killing is achieved (Pearson et al., Antimicrob. Agents Chemother. 18: 699-708, 1980).
Results. Representative gram positive (S. aureus) and gram negative (P. aeruginosa) clinical isolates were used as the index bacteria to survey the peptides described herein.
A limitation of many host-derived antimicrobial peptides is their decreased activity at physiologic (150 mM) NaCl concentration. See Friedrich et al., Antimicrobial Agents and Chemotherapy 43:1542-1548. The peptides WLSA-5 (SEQ ID NO: 3) and LL37 were tested against the two index strains at physiologic NaCl. […] The activity of antimicrobial peptides described herein were compared to an expanded list of clinical bacterial isolates. These are summarized in Table 2 by comparing their MBCs in phosphate buffer alone (low salt) and phosphate buffer containing 150 mM NaCl (physiologic conditions). Inspection of this table would lead one skilled in the art to conclude that the activity of antimicrobial peptides described herein compare favorably to the host derived antimicrobial peptides as it relates to the spectrum and potency of antimicrobial activity.

[3] = test system: Methicillin Resistant S. aureus; format: cell-based, Staphylococcus aureus; design: unit not given here; settings: 99.9% killing; for MBC, Methicillin Resistant S. aureus, 0 mM NaCl: 0 mM NaCl (10 mM phosphate buffer); for MBC, Methicillin Resistant S. aureus, 150 mM NaCl: 150 mM NaCl (physiologic)
[4] = molecular target: Ca^2+ saturated calmodulin (Homo sapiens, UniProt P0DP23); settings: host cell Ca^2+ saturated calmodulin; cited from earlier work
[5] = test system: diverse gram-negative and -positive bacterial isolates; settings: cited from earlier work
Pseudomonas aeruginosa [6] = settings: 1×10^5 colony-forming units; cited from earlier work
Staphylococcus aureus [7] = settings: 1×10^5 colony-forming units; cited from earlier work
Burkholderia cepacia = format: cell-based; settings: standard broth dilution, FIG. 7
[8] = test system: P. aeruginosa attached to differentiated human bronchial epithelial cells; test: CF cell culture model: killing of bacteria bound to airway epithelial cells; format: cell-based, Pseudomonas aeruginosa; settings: increasing peptide concentration, co-culture, FIG. 9
[9] = test system: differentiated primary human airway epithelial cells; test: CF cell culture model: transepithelial resistance as peptide toxicity

Substance	MBC, Psuedomonas aeruginosa, 0 mM NaCl (Pseudomonas aeruginosa [1])	MBC, Psuedomonas aeruginosa, 150 mM NaCl (Pseudomonas aeruginosa [1])	MBC, Staphylococcus aureus, 0 mM NaCl (Staphylococcus aureus [2])	MBC, Staphylococcus aureus, 150 mM NaCl (Staphylococcus aureus [2])	MBC, Methicillin Resistant S. aureus, 0 mM NaCl [3]	MBC, Methicillin Resistant S. aureus, 150 mM NaCl [3]	other results
RVVRV VRRWV RR (RVVRVVRRWVRR; Antimicrobial peptide) [WLBU-1]	400	2500	30,000 nM	10,000 nM	50,000	50,000	
LL37: human cathelicidin, 37-amino acid amphiphilic a-helical cationic host derived antimicrobial peptide (LLGDFFRKSKEKIGKEFKRIVQRIKDFLRNLVPRTES; Antibacterial peptide LL-37; UniProt P49913 134-170, looked up) [reference compound]							P. aeruginosa killing, influence of physiologic NaCl (Pseudomonas aeruginosa [1]): not affected by NaCl inclusion
RRVVRRVRRVVRRVVRVVRRVVRRVRRVVRRVVRVVRRVVRR (RRVVRRVRRVVRRVVRVVRRVVRRVRRVVRRVVRVVRRVVRR; Antimicrobial peptide) [LBU-3.5]	400	400	1000 nM	600 nM	1500	200	
RRVVRRVRRVVRRVVRVVRRVVRR [LBU-2]	1500	800	1500 nM				
RVVRVVRRWVRRVRRVWRRVVRVVRRWVRRVRRVWRRVVRVVRRWRVV (RVVRVVRRWVRRVRRVWRRVVRVVRRWVRRVRRVWRRVVRVVRRWRVV; Antimicrobial peptide) [WLBU-4]	1500	400	3,000 nM	600 nM	1500	200	
LLP1: prototypical lentiviral lytic peptide, amino acids 828-856 of the HIV-1 viral isolate HXB2R Env (SEQ ID NO: 19) (RVIEVVQGACRAIRHIPRRIRQGLERIL; Human immunodeficiency virus type 1) [reference compound]	1000	1000	8000 nM	16000 nM	16000		binding affinity to calmodulin [4]: near nanomolar affinity; antibacterial activity compared with magainin-2 [5]: equal to, or more potent than magainin-2; time to nearly sterilize suspension, P. aeruginosa (Pseudomonas aeruginosa [6]): ≤ 60 s; time to nearly sterilize suspension, S. aureus (Staphylococcus aureus [7]): ≤ 60 s
RVVRVVRRVVRRVRRVVRRVVRVVRRVVRRVRRVVRRVVRVVRRVVRR [LBU-4]	800	400	800 nM	800 nM			
VRRVVRRVVRVVRRVVRRVRRVVRRVVRVV RRVVRR (VRRVVRRVVRVVRRVVRRVRRVVRRVVRVVRRVVRR; Antimicrobial peptide) [LBU-3]	1500	800	1500 nM	1500 nM			
RVIRVVQRACRAIRHIVRRIRQGLRRIL (RVIRVVQRACRAIRHIVRRIRQGLRRIL; Antimicrobial peptide) [SA-5]	1000	1000	1000 nM				
RWIRVVQRWCRAIRHIWRRIRQGLRRWLRVV [WLSA-5, RWIRVVQRWCRAIRHIWRRIRQGLRRWLRVV]	1000	1000	1000 nM	1000 nM	150		P. aeruginosa killing, influence of physiologic NaCl (Pseudomonas aeruginosa [1]): not affected by NaCl inclusion; also recorded: maintained its activity in low and physiologic salt conditions; S. aureus killing, influence of physiologic NaCl (Staphylococcus aureus [2]; phosphate buffer with 150 mM NaCl versus low salt): not influenced by NaCl in the same way as LL37; also recorded: maintained its activity in low and physiologic salt conditions; activity against B. cepacia clinical isolate (Burkholderia cepacia): significantly more active than LSA-5; viability of bacteria bound to epithelial cells [8]: decrease in bacterial viability; change in transepithelial resistance ([9]; at a decrease in bacterial counts by two orders of magnitude): less than 50%; effect on trans-epithelial resistance ([9]; compared with LL-37): transient and not significantly different from LL-37
VRRVWRRVVRVVRRWVRRVRRVWRRVVRVV RRWVRR (VRRVWRRVVRVVRRWVRRVRRVWRRVVRVVRRWVRR; Antimicrobial peptide) [WLBU-3]	1500	800	3,000 nM	600 nM	400	100	
